The record followed here is patent US20200399262A1, “COMPOUNDS FOR INHIBITING PROTEIN DEGRADATION AND METHODS OF USE THEREOF IN THE TREATMENT OF CANCER” (PI Therapeutics Ltd, priority 2018, published 2020).

pEC50: −log10 of the molar value.

Common to all, as to type: cell-based
In assay [1] the test system is KLE. Put plainly: Cell viability panel, ATPlite 1Step. Conditions: Homo sapiens, Endometrial adenocarcinoma, 72 h exposure, read-out: Compound EC50. Here is the method:
(§1) Cell viability panel studies. Cells were diluted in the corresponding ATCC recommended medium and dispensed in a 384-well plate, depending on the cell line used, at a density of 200-6400 cells per well. For each used cell line, the optimal cell density was used. Compound was serially diluted and 8 concentration (0.04-32 μM) were added to the cells for 72 h exposure. At t=end, of ATPlite 1Step™ (PerkinElmer) were used to calculate cell viability. Cell lines marked with asterisk were seeded 24 h prior to treatment in 96-well plates at the density range of 5,000-40,000 cells/well, according to duplication rate, in RPMI 1640 medium containing 10% fetal bovine serum and 2 mM L-glutamine. Compounds were diluted from 10 mM DMSO stock and treatment was applied at the range of 0.04-1 μM. Following incubation at 37° C. for 48 hours with increasing concentrations of the compounds, viability was determined with CyQUANT® Direct Assay Kit (Invitrogen). Output intensities were normalized to values after treatment with DMSO alone, and EC50 values were calculated using the absorbance measurements [time zero, (Tz), growth control, (C), plus the test growth at the four drug concentration levels (Ti)] as follows: [(Ti−Tz)/(C−Tz)]×100 for concentrations for which Ti>/=Tz; [(Ti−Tz)/Tz]×100 for concentrations for which Ti−<Tz.
A general note: ATP-based viability assays read luminescence as a measure of living cells.

In assay [2] the test system is PA-1. The experiment in a line: Cell viability panel, ATPlite 1Step. Conditions: Homo sapiens, Ovarian mixed germ cell tumor, 72 h exposure, read-out: Compound EC50. Here is the method:
as §1

In assay [3] the test system is SW948. Put plainly: Cell viability panel, ATPlite 1Step. The note with it: Homo sapiens, Colon adenocarcinoma, 72 h exposure, read-out: Compound EC50. Here is the method:
as §1

Assay [4] concerns MG-63. The experiment in a line: Cell viability panel, ATPlite 1Step. Conditions: Homo sapiens, Osteosarcoma, 72 h exposure, read-out: Compound EC50. Here is the method: as §1
Assay [5] deals with SW48. Put plainly: Cell viability panel, ATPlite 1Step. The note with it: Homo sapiens, Colon adenocarcinoma, 72 h exposure, read-out: Compound EC50. How it is done: as §1
For assay [6], the system named is RKO. Put plainly: Cell viability panel, ATPlite 1Step. The note with it: Homo sapiens, Colon carcinoma, 72 h exposure, read-out: Compound EC50. How it is done: as §1
In assay [7] the test system is SNU-C2B. Put plainly: Cell viability panel, ATPlite 1Step. Conditions: Homo sapiens, Cecum adenocarcinoma, 72 h exposure, read-out: Compound EC50. How it is done:
as §1

Assay [8] deals with COLO 829. Put plainly: Cell viability panel, ATPlite 1Step. Conditions: Homo sapiens, Cutaneous melanoma, 72 h exposure, read-out: Compound EC50. How it is done:
as §1

Assay [9] concerns A-427. Put plainly: Cell viability panel, ATPlite 1Step. The note with it: Homo sapiens, Lung adenocarcinoma, 72 h exposure, read-out: Compound EC50. Here is the method: as §1
Assay [10] deals with KATO III. Put plainly: Cell viability panel, ATPlite 1Step. The note with it: Homo sapiens, Signet ring cell gastric adenocarcinoma, 72 h exposure, read-out: Compound EC50. How it is done:
as §1

The subject of assay [11] is NCCIT. The experiment in a line: Cell viability panel, ATPlite 1Step. The note with it: Homo sapiens, Testicular embryonal carcinoma, 72 h exposure, read-out: Compound EC50. Here is the method:
as §1

In assay [12] the test system is HCT-15. Put plainly: Cell viability panel, ATPlite 1Step. Conditions: Homo sapiens, Colon adenocarcinoma, 72 h exposure, read-out: Compound EC50. How it is done:
as §1

Assay [13] has as its system SR. The experiment in a line: Cell viability panel, ATPlite 1Step. The note with it: Homo sapiens, Anaplastic large cell lymphoma, 72 h exposure, read-out: Compound EC50. Here is the method: as §1
Assay [14] relates to Hs 578T. The experiment in a line: Cell viability panel, ATPlite 1Step. Conditions: Homo sapiens, Invasive ductal carcinoma, 72 h exposure, read-out: Compound EC50. How it is done: as §1
The subject of assay [15] is BT-20. Put plainly: Cell viability panel, ATPlite 1Step. The note with it: Homo sapiens, Invasive ductal carcinoma, 72 h exposure, read-out: Compound EC50. How it is done:
as §1

In assay [16] the test system is SUP-T1. The experiment in a line: Cell viability panel, ATPlite 1Step. The note with it: Homo sapiens, T lymphoblastic lymphoma, 72 h exposure, read-out: Compound EC50. Here is the method:
as §1

In assay [17] the test system is A375. The experiment in a line: Cell viability panel, ATPlite 1Step. The note with it: Homo sapiens, A-375, Amelanotic melanoma, 72 h exposure, read-out: Compound EC50. How it is done:
as §1

Assay [18] has as its system SJCRH30. The experiment in a line: Cell viability panel, ATPlite 1Step. Conditions: Alveolar rhabdomyosarcoma, 72 h exposure, read-out: Compound EC50. How it is done: as §1
Assay [19] relates to LNCaP FGC. The experiment in a line: Cell viability panel, ATPlite 1Step. The note with it: Homo sapiens, Prostate carcinoma, 72 h exposure, read-out: Compound EC50. Here is the method:
as §1

Assay [20] deals with OVCAR-5. The experiment in a line: NCI60 screen cytotoxicity. The note with it: Homo sapiens, Ovarian cancer, read-out: Compound B1 EC50.
Assay [21] concerns K-562. Put plainly: NCI60 screen cytotoxicity. Conditions: Homo sapiens, K562, Leukemia, read-out: Compound B1 EC50.
The subject of assay [22] is SF-295. Put plainly: NCI60 screen cytotoxicity. The note with it: Homo sapiens, CNS, read-out: Compound B1 EC50.
Assay [23] relates to SK-MEL-28. The experiment in a line: NCI60 screen cytotoxicity. The note with it: Homo sapiens, Melanoma, read-out: Compound B1 EC50.
Assay [24] concerns ACHN. The experiment in a line: NCI60 screen cytotoxicity. Conditions: Homo sapiens, Renal cancer, read-out: Compound B1 EC50.
In assay [25] the test system is NCI-H460. The experiment in a line: NCI60 screen cytotoxicity. The note with it: Homo sapiens, Lung cancer, read-out: Compound B1 EC50.
The test system of assay [26] is autophagic vacuoles in MM1.S cells. Put plainly: Autophagy quantification with CYTO-ID dye, flow cytometry. The note with it: 0.2 μM, 5 hours, vs vehicle. How it is done:
MM1.S cells were treated with 0.2 μM Compound B1 or vehicle (DMSO) for 5 h. Detection of autophagy vesicles was done by CYTO-ID® green autophagy dye that selectively labels autophagic vacuoles. The samples were analyzed using flow cytometer and the data were plotted on histogram: cell counts vs. FITC fluorescence intensity.
Autophagy Quantification: Quantification of autophagosomes were done with CytoID (ENZO). CYTO-ID® Autophagy Detection Kit measures autophagic vacuoles and monitors autophagic flux in live cells using a dye that selectively labels autophagic vacuoles. The probe is a cationic amphiphilic tracer dye that rapidly partitions into cells in a similar manner as drugs that induce phospholipidosis. MM1.S cells were treated with Compound B1 or vehicle for 5 hours. Following treatment period the cells were harvested and stained with CytoID dye according to manufacturer instructions. Autophagosomes were analyzed and quantified using flow cytometer (Miltenyi). Data of cell counts were plotted as FITC (FL1) fluorescence intensity.
A general note: A flow cytometer gives signals particle by particle.

By pEC50 is commonly meant the EC50 on a negative log10 scale, so that one unit is a factor of ten. With `CN(C)CCCS(=O)(=O)N1C/C(=C\c2ccc(C#N)cc2)C(=O)/C(=C/c2ccc(C#N)cc2)C1` [Compound AA], the pEC50 was ≤ 6.00 in [1]; > 6.52 in [2]; > 6.52 in assay [3]; > 6.52 in assay [4]; 6.00 to 6.52 in [5]; > 6.52 in [6]. Moreover, the pEC50 was 6.00 to 6.52 in [7]; > 6.52 in assay [8]; > 6.52 in [9]; 6.00 to 6.52 in assay [10]; > 6.52 in assay [11]; 6.00 to 6.52 in assay [12]. Also, the pEC50 in assay [13] was > 6.52; in assay [14], > 6.52; in [15], ≤ 6.00; in assay [16] it was > 6.52; in assay [17] it was > 6.52; in assay [18] it was > 6.52. Besides, the negative-log EC50 (pEC50) in [19] was 6.00 to 6.52.
Turning to `CN(C)CC(=O)NCC(=O)N1C/C(=C\c2ccc(C#N)cc2)C(=O)/C(=C/c2ccc(C#N)cc2)C1` [Compound B1], the pEC50 was > 6.52 in [20]; > 6.52 in [21]; > 6.52 in assay [22]; 6.00 to 6.52 in assay [23]; > 6.52 in assay [24]; > 6.52 in [25]. Also, the “autophagosomal vesicles (CYTO-ID fluorescence)” value in assay [26] is given as “significantly lower fluorescent dye then vehicle treated cells”.
